Data as given in patent US20160016998A1, “HIGH-AFFINITY MATRIPTASE INHIBITORS” (MERCK PATENT GMBH, priority 2013, published 2016).
Where two headings read alike, the source gives them in different places. Bridge positions count the residues as written; N and C are the ends. Peptide text beside a SMILES is read from it.

Columns and labels:
Bovine trypsin = molecular target: T1, Bovine trypsin (Bos taurus, UniProt P00760); assay: Trypsin enzyme inhibition assay with chromogenic substrate Boc-QAR-pNA; type: biochemical; conditions: pH 7.6
T1 construct: purchased Sigma-Aldrich
T1 sequence (P00760 24-246): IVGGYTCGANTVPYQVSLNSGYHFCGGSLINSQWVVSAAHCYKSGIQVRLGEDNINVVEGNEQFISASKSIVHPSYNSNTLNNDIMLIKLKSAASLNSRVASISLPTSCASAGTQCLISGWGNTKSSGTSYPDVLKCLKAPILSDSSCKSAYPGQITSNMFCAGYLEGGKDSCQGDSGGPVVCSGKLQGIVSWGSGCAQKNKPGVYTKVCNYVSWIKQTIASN
Experimental: (§1) Recombinant production, autocatalytic activation and purification of matriptase were conducted as previously described. Bovine trypsin was purchased from Sigma-Aldrich. Active-site titration and determination of Michaelis-Menten constants KM for the chromogenic substrate Boc-QAR-pNA was performed as reported earlier.
All experiments were performed in triplicate. Active-site titrated matriptase (final concentration: [E]=0.9 nM) or trypsin (final concentration: [E]=0.5 nM) were incubated with the respective inhibitor in different concentrations [I] at pH 7.6 or 8.5 for 30 min. Then, the chromogenic substrate Boc-QAR-pNA (final concentration: [S]=250 μM) was added. The residual proteolytic activity (v/v0) was determined by monitoring the absorption of the corresponding samples in 96-well plates (NUNC, round bottom, clear) at 405 nm in 60 sec intervals over 30 min at RT using the Tecan GENios microplate reader. Slopes of the initial reaction velocities (steady-state) were calculated and normalized to the data of the uninhibited enzymatic hydrolysis of Boc-QAR-pNA. The determined v/v0 values were plotted against the concentration of the inhibitor. The resulting dose-response curves were fitted either by equation 1 or in case of tight-binding inhibition (trypsin: 42; matriptase: 43 at pH 8.5, 44 at pH 7.6 and 8.5) by equation 2 through non-linear regression.
(§2) Errors were calculated through propagation of errors (compare Tischler et al.).[17]

matriptase = molecular target: T2, matriptase (Homo sapiens, UniProt Q9Y5Y6); assay: Matriptase enzyme inhibition assay with chromogenic substrate Boc-QAR-pNA; type: biochemical; conditions: for matriptase affinity / inhibitor potency in words: enzyme inhibition assays, comparator as worded; for Relative Activity: ratio Ki of compound / Ki of SFTI-1[1,14]; for Sum of Increment Contributions: sum of ΔBG differences of the single modifications
T2 construct: made in house
T2 sequence (Q9Y5Y6 615-855 limits assumed): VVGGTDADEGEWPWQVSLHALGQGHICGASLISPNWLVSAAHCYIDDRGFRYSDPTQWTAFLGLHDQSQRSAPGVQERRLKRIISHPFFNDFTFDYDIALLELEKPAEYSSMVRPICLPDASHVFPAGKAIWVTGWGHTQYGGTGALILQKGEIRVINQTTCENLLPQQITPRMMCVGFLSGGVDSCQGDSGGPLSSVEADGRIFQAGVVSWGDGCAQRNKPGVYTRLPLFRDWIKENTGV
Experimental: as §1
All experiments were performed in triplicate. […] Slopes of the initial reaction velocities (steady-state) were calculated and normalized to the data of the uninhibited enzymatic hydrolysis of Boc-QAR-pNA. The determined v/v0 values were plotted against the concentration of the inhibitor.
as §2

[1] = disulfide bond, air (O2), (NH4)2CO3 buffer pH 8.4, water, 168.0 h

Ki (Bovine trypsin) [nM] | ΔBG(x)-ΔBG(SFTI-1[1,14]) (matriptase; matriptase, pH 7.6 (Table 2)) [kcal/mol] | Ki (matriptase; pH 7.6 (Table 2)) [nM] | Ki (matriptase; pH 8.5 (values in brackets)) [nM] | Relative Activity (matriptase; matriptase, pH 7.6 (Table 2)) | Sum of Increment Contributions (matriptase; matriptase, pH 7.6) [kcal/mol] | SMILES | matriptase affinity / inhibitor potency in words (matriptase; pH 7.6) | other results
11.2 ± 2 | 2.46 ± 0.096 | 11 | 1.1 | 0.016 | 2.29 ± 0.14 | CC[C@H](C)[C@@H]1NC(=O)[C@H](CO)NC(=O)[C@H](CCCCN)NC(=O)[C@H]([C@@H](C)O)NC(=O)[C@@H](NC(=O)[C@H](CCCNC(=N)N)NC(=O)CN)CSSC[C@@H](C(=O)N[C@@H](Cc2c[nH]cn2)C(=O)N2CCC[C@H]2C(=O)N[C@@H](CC(=O)O)C(=O)O)NC(=O)[C@H](CCCNC(=N)N)NC(=O)[C@@H]2CCCN2C(=O)[C@@H]2CCCN2C1=O [Compound 43] (H-GRCTKSIPPRCHPD-OH; disulfide 3-11; N-terminus assumed) | further increased matriptase affinity compared to SFTI-1[1,14] derivatives 9, 18, and 22 | sum of individual favorable contributions to ΔBG (matriptase; contributions of compounds 18 and 22): 2.29 ± 0.14 kcal/mol; difference of the free energies of binding/dissociation ΔBG between compound and SFTI-1[1,14] (matriptase; matriptase, pH 7.6): 2.46 ± 0.096 kcal/mol
38 ± 11.1 | 2.8 ± 0.14 | 6.2 ± 1.2 | 2.3 ± 0.8 | 0.009 |  | CC[C@H](C)[C@@H]1NC(=O)[C@H](CO)NC(=O)[C@H](CCCCN)NC(=O)[C@H]([C@@H](C)O)NC(=O)[C@@H](NC(=O)[C@H](CCCNC(=N)N)NC(=O)CN)CSSC[C@@H](C(=O)N[C@@H](Cc2c[nH]cn2)C(N)=O)NC(=O)[C@H](CCCNC(=N)N)NC(=O)[C@@H]2CCCN2C(=O)[C@@H]2CCCN2C1=O [Compound 44] (H-GRCTKSIPPRCH-NH2; disulfide 3-11; N-terminus assumed) |  | selectivity towards matriptase over trypsin (matriptase; pH 7.6): 6 fold
 |  |  |  |  |  | CC[C@H](C)[C@@H]1NC(=O)[C@@H]2CCCN2C(=O)[C@@H]2CCCN2C(=O)[C@H](Cn2cc(CN)nn2)NC(=O)[C@H](CO)NC(=O)[C@H](CCCCN)NC(=O)[C@H]([C@@H](C)O)NC(=O)[C@@H](NC(=O)[C@H](CCCNC(=N)N)NC(=O)CN)CSSC[C@@H](C(=O)N[C@@H](Cc2ccccc2)C(=O)N2CCC[C@H]2C(=O)N[C@@H](CC(=O)O)C(=O)O)NC1=O |  | ring closure, yield of all isomers ([1]; from CC[C@H](C)[C@H](NC(=O)[C@@H]1CCCN1C(=O)[C@@H]1CCCN1C(=O)[C@H](Cn1cc(CN)nn1)NC(=O)[C@H](CO)NC(=O)[C@H](CCCCN)NC(=O)[C@@H](NC(=O)[C@H](CS)NC(=O)[C@H](CCCNC(=N)N)NC(=O)CN)[C@@H](C)O)C(=O)N[C@@H](CS)C(=O)N[C@@H](Cc1ccccc1)C(=O)N1CCC[C@H]1C(=O)N[C@@H](CC(=O)O)C(=O)O, 0.63 mM, 4 steps): 17%
9.2 ± 2.1 | 1.22 ± 0.096 | 89.5 ± 11.1 |  | 0.13 | 1.65 ± 0.14 | CC[C@H](C)[C@@H]1NC(=O)[C@H](CO)NC(=O)[C@H](CCCCN)NC(=O)[C@H]([C@@H](C)O)NC(=O)[C@@H](NC(=O)[C@H](CCCNC(=N)N)NC(=O)CN)CSSC[C@@H](C(=O)N[C@@H](Cc2c[nH]cn2)C(=O)N2CCC[C@H]2C(=O)N[C@@H](CC(=O)O)C(=O)O)NC(=O)[C@H](Cn2cc(CN)nn2)NC(=O)[C@@H]2CCCN2C(=O)[C@@H]2CCCN2C1=O [Compound 42] | further increased matriptase affinity compared to SFTI-1[1,14] derivatives 9, 18, and 22 | ring closure, yield of all isomers ([1]; from CC[C@H](C)[C@H](NC(=O)[C@H](CO)NC(=O)[C@H](CCCCN)NC(=O)[C@@H](NC(=O)[C@H](CS)NC(=O)[C@H](CCCNC(=N)N)NC(=O)CN)[C@@H](C)O)C(=O)N1CCC[C@H]1C(=O)N1CCC[C@H]1C(=O)N[C@@H](Cn1cc(CN)nn1)C(=O)N[C@@H](CS)C(=O)N[C@@H](Cc1c[nH]cn1)C(=O)N1CCC[C@H]1C(=O)N[C@@H](CC(=O)O)C(=O)O, 0.63 mM, 30 steps): 1.2%
 |  |  |  |  |  | CC[C@H](C)[C@@H]1NC(=O)[C@H](CO)NC(=O)[C@H](CCCCN)NC(=O)[C@H]([C@@H](C)O)NC(=O)[C@@H](NC(=O)[C@H](CCCNC(=N)N)NC(=O)CN)CSSC[C@@H](C(=O)N[C@@H](Cc2ccccc2)C(=O)N2CCC[C@H]2C(=O)N[C@@H](CC(=O)O)C(=O)O)NC(=O)[C@H](Cn2cc(CN)nn2)NC(=O)[C@@H]2CCCN2C(=O)[C@@H]2CCCN2C1=O |  | ring closure, yield of all isomers ([1]; from CC[C@H](C)[C@H](NC(=O)[C@H](CO)NC(=O)[C@H](CCCCN)NC(=O)[C@@H](NC(=O)[C@H](CS)NC(=O)[C@H](CCCNC(=N)N)NC(=O)CN)[C@@H](C)O)C(=O)N1CCC[C@H]1C(=O)N1CCC[C@H]1C(=O)N[C@@H](Cn1cc(CN)nn1)C(=O)N[C@@H](CS)C(=O)N[C@@H](Cc1ccccc1)C(=O)N1CCC[C@H]1C(=O)N[C@@H](CC(=O)O)C(=O)O, 0.63 mM, 22 steps): 21.2%
 |  |  |  |  |  | CC[C@H](C)[C@@H]1NC(=O)[C@H](CO)NC(=O)[C@H](CCCCN)NC(=O)[C@H]([C@@H](C)O)NC(=O)[C@@H](NC(=O)[C@H](CCCNC(=N)N)NC(=O)CN)CSSC[C@@H](C(=O)N[C@@H](Cc2ccccc2)C(=O)N2CCC[C@H]2C(=O)N[C@@H](CC(=O)O)C(=O)O)NC(=O)[C@H](CCCCN)NC(=O)[C@@H]2CCCN2C(=O)[C@@H]2CCCN2C1=O |  | ring closure, yield of all isomers ([1]; from CC[C@H](C)[C@H](NC(=O)[C@H](CO)NC(=O)[C@H](CCCCN)NC(=O)[C@@H](NC(=O)[C@H](CS)NC(=O)[C@H](CCCNC(=N)N)NC(=O)CN)[C@@H](C)O)C(=O)N1CCC[C@H]1C(=O)N1CCC[C@H]1C(=O)N[C@@H](CCCCN)C(=O)N[C@@H](CS)C(=O)N[C@@H](Cc1ccccc1)C(=O)N1CCC[C@H]1C(=O)N[C@@H](CC(=O)O)C(=O)O, […], 29 steps): 3.9%
